The record followed here is PubChem BioAssay (NCI).

Among the test systems are HOP-92 NSCLC; PC-3 prostate; OVCAR-5 ovarian; NCI-H522 lung; SW-620 colon; SK-MEL-2 melanoma; A549 NSCLC; MCF7 breast; RPMI-8226 leukemia; DU-145 prostate.
Test in all cases: inhibition of tumour cell growth, NCI panel, 48 h

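Values below derive from 48-hour exposures of cells grown in 96-well plates, with endpoints linearly interpolated between the two concentrations bracketing the appropriate inhibition level. The concentration for full growth arrest is given as TGI.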 Where only a bound is given, the exact number is not on record here.

On to `Cc1cc2nc(CC(C(F)(F)F)C(F)(F)F)oc2cc1C`, for which the TGI in the experiment on HOP-92 NSCLC amounted to 28.9 µM; in the experiment with PC-3 prostate, 5.43 µM; with OVCAR-5 ovarian, 25.7 µM; in the experiment on NCI-H522 lung it was 1.13 µM; in the experiment with SW-620 colon, 2.83 µM; with SK-MEL-2 melanoma, 9.85 µM. Besides, the TGI with A549 NSCLC came to 30.1 µM; in the experiment on MCF7 breast it was 24.1 µM; with RPMI-8226 leukemia, 1.61 µM; with DU-145 prostate, 16.4 µM.

For the compound `COc1ccc2nc3c([N+](=O)[O-])ccc(NCCCN(C)C)c3c(N)c2c1`, the TGI in the experiment with HOP-92 NSCLC came to 3.73 µM; in the experiment on PC-3 prostate, 2.73 µM; with OVCAR-5 ovarian, 2.75 µM; in the experiment with NCI-H522 lung it was 1.34 µM; in the experiment with SW-620 colon, 1.71 µM; in the experiment with SK-MEL-2 melanoma, 4.78 µM. Moreover, the TGI with A549 NSCLC was found to be 3.15 µM; in the experiment on MCF7 breast, 2.5 µM; with RPMI-8226 leukemia, 1.84 µM; with DU-145 prostate, 3.05 µM.

`NCCN(CCN)/[N+]([O-])=N/O`: the TGI with HOP-92 NSCLC, with PC-3 prostate, in the experiment with OVCAR-5 ovarian, in the experiment on NCI-H522 lung, in the experiment with SW-620 colon and in the experiment with SK-MEL-2 melanoma was greater than 100 µM in each case. The TGI in the experiment with A549 NSCLC, in the experiment with MCF7 breast, in the experiment with RPMI-8226 leukemia and in the experiment with DU-145 prostate was greater than 100 µM in each case.

Take `CCOC(=O)CCC(C(=O)OCC)n1nnc2ccc(Nc3c(C)[n+]([O-])c4cc(F)c(OCC)cc4[n+]3[O-])cc21` (stereo not given): the TGI with HOP-92 NSCLC, with PC-3 prostate, in the experiment on OVCAR-5 ovarian, with NCI-H522 lung, in the experiment with SW-620 colon and with SK-MEL-2 melanoma was greater than 100 µM each time. The TGI was greater than 100 µM in the experiment with A549 NSCLC, 68.6 µM in the experiment on MCF7 breast, 54.3 µM in the experiment with RPMI-8226 leukemia and greater than 100 µM with DU-145 prostate.

For the compound `O=C1c2c(F)c(F)c(F)c(F)c2SC2=Nc3cccc4cccc(c34)N12`, the TGI in the experiment with HOP-92 NSCLC was found to be 6.7 µM; in the experiment with PC-3 prostate it was 17.2 µM; with OVCAR-5 ovarian, 30.9 µM; in the experiment on NCI-H522 lung it was 9.01 µM; in the experiment on SW-620 colon, 12 µM; in the experiment with SK-MEL-2 melanoma it was 7.89 µM. The TGI with A549 NSCLC is 39.8 µM; in the experiment with MCF7 breast, 16 µM; in the experiment with RPMI-8226 leukemia, 8.02 µM; in the experiment on DU-145 prostate, 24.9 µM.

Regarding `COc1cc(/C=C/C2=NN(c3cccc(S(=O)(=O)O)c3)C3(C2)SCC(=O)N3c2nc3ccccc3s2)cc(OC)c1OC` (stereo not given), the TGI was greater than 100 µM with HOP-92 NSCLC; greater than 100 µM in the experiment on PC-3 prostate; greater than 100 µM in the experiment on OVCAR-5 ovarian; 38.4 µM with NCI-H522 lung; greater than 100 µM in the experiment on SW-620 colon; greater than 100 µM with SK-MEL-2 melanoma. The TGI with A549 NSCLC is greater than 100 µM; in the experiment with MCF7 breast, greater than 100 µM; with RPMI-8226 leukemia it was 48.9 µM; with DU-145 prostate, greater than 100 µM.

`CCc1n[nH]c(=O)n1N=C(c1ccccc1)c1ccccc1`: the TGI with HOP-92 NSCLC, in the experiment on PC-3 prostate, with OVCAR-5 ovarian, in the experiment with NCI-H522 lung, with SW-620 colon and in the experiment with SK-MEL-2 melanoma was greater than 100 µM throughout. The TGI in the experiment with A549 NSCLC, in the experiment with MCF7 breast, in the experiment on RPMI-8226 leukemia and in the experiment with DU-145 prostate was greater than 100 µM throughout.

Turning to `Cc1cc(N)c2cc(NC(=O)Nc3ccc4nc(C)cc(N)c4c3)ccc2n1`, the TGI in the experiment with HOP-92 NSCLC, with PC-3 prostate, in the experiment with OVCAR-5 ovarian, in the experiment on NCI-H522 lung, with SW-620 colon and in the experiment on SK-MEL-2 melanoma was greater than 100 µM in each case. Moreover, the TGI with A549 NSCLC, in the experiment with MCF7 breast, in the experiment on RPMI-8226 leukemia and in the experiment on DU-145 prostate was greater than 100 µM in each case.

Consider `COc1cc2nc3n(c(=O)c2cc1OC)CCCCC3`, for which the TGI with HOP-92 NSCLC, in the experiment on PC-3 prostate, with OVCAR-5 ovarian, in the experiment with NCI-H522 lung, in the experiment on SW-620 colon and with SK-MEL-2 melanoma was greater than 100 µM throughout. Also, the TGI in the experiment on A549 NSCLC, in the experiment on MCF7 breast, in the experiment with RPMI-8226 leukemia and in the experiment with DU-145 prostate was greater than 100 µM in each case.
